Experiments:
[1] = tested on: balloon-injured carotid arteries; details: delivered pre- and post-operatively; effect relatively modest; cited from earlier work
[2] = tested on: myeloperoxidase-positive (MPO) cells; details: graft immersed in UO126 (80 μM/L) prior to grafting; 24 hours and 4 days post-operatively
Description: (§1) Carotid artery bypass using reversed autologous external jugular vein (EJV) was performed on 29 purpose-bred mongrel dogs. Following skin incision, the EJV was exposed with a “no-touch” technique, and the side branches were clipped and divided. The dogs received heparin systemically (100 U/kg) and the ipsilateral common carotid artery was dissected free of the surrounding tissue. The EJV was ligated and excised. The lumen of the EJV was flushed with plasmalyte solution without distending the vein. A segment of the excised vein was removed and labeled (“control 1”). The EJV was reversed and grafted to the common carotid artery in an end-to-side fashion with 7-0 polypropylene suture, and the carotid artery was ligated and divided. See Saunders et al., J Thorac Cardiovasc Surg. 2004; 127:1276-1284.
(§2) Inflammation is a key component of a vessel's response to injury.
(§3) This experiment, which also used the canine model described in Example 1, investigated the levels of CRP and MPO cells in arterialized vein grafts immersed in a solution of UO126 (80 μM/L) (solubilized with DMSO and diluted in PBS) prior to grafting (i.e., pretreated grafts), arterialized vein grafts that were not pretreated, and contralateral ungrafted, un-pretreated external jugular veins.

C reactive protein (CRP) = details: graft immersed in UO126 (80 μM/L) prior to grafting; 24 hours post-operatively
Description: as §1, §2, §3

medial cell apoptosis = details: EJV pretreated with 80 μM UO126; 1 day and 4 days post-anastomosis
Description: as §1
(§4) Each EJV was grafted to a carotid artery. Autologous femoral vein was excised but not treated or grafted.

ERK-1/2 = details: excised EJV immersed 20 minutes in 80 μmmoles/L UO126 before grafting; 3 hours post-grafting; relative to DMSO-pretreated EJVs
Description: as §1, §4

PCNA expression = details: EJV pretreated with 80 μM UO126; 24 hours and 4 days post-grafting; relative to DMSO-pretreated EJVs
Description: as §1, §4

ERK-1/2 activation = details: cited from earlier work
[3] = tested on: arterialized vein graft wall; details: EJV immersed 20 minutes in 80 μmoles/L UO126 before grafting; AVG harvested at 28 days; 1% cholesterol chow; DMSO controls 358.2+/−190.3; p=0.012
Description: The experimental procedure followed in the canine model described in Examples 1, 2, and 3 was applied to white New Zealand rabbits fed a 1% cholesterol chow. Prior to grafting, the excised autologous EJVs were fully immersed for 20 minutes at room temperature in about 5 ml of a solution containing 80 μmoles/L of UO126 (solubilized with DMSO and diluted in PBS) or vehicle (DMSO, 0.8%) alone in PBS. Each EJV was grafted to a carotid artery. Autologous femoral vein was excised but not treated or grafted. The veins were fixed in formaldehyde, and sections stained with hematoxylin/eosin were used for the following analysis.

SMILES	ERK activation [1]	medial cell proliferation [1]	levels of MPO cells associated with arterialized vein grafts [2]	upregulation of CRP in arterialized vein grafts (C reactive protein (CRP))	medial cell apoptosis (TUNEL) (medial cell apoptosis)	ERK-1/2 activation (ratio of phosphorylated to total ERK-1/2) (ERK-1/2)	PCNA expression (PCNA expression)	potency as inhibitor of ERK-1/2 activation compared with PD098059 (ERK-1/2 activation)	vein wall thickness (intima+media) to luminal circumference ratio (mean value+/−SD) [3]
COc1cccc(-c2cc(=O)c3ccccc3o2)c1N [PD98059, 2-(2′-amino-3′-methoxyphenyl) oxanaphthalen-4-one]	inhibit	inhibit							
N#CC(=C(N)Sc1ccccc1N)C(C#N)=C(N)Sc1ccccc1N [UO126, 1,4-diamino-2,3-dicyano-1,4-bis[2-aminophenylthio]butadiene]			significantly downregulated	does not affect	marked and sustained (up to 4 days) induction	significantly reduced	markedly decreased	more potent	288.8+/−109.5

From patent US8372421B2, “Inhibition of mitogen-activated protein kinases in cardiovascular disease” (New York University, priority 2004, dated 2013)
